# Experimental data as given in patent US20250090545A1, “METHODS AND COMPOSITIONS FOR TREATMENT OF PERIPHERAL NEUROPATHIES” (UNIVERSITY OF MANITOBA, priority 2013, published 2025).
# Entries after “also recorded” stand apart in the source; their conditions may differ.
# Assays:
# [1] = tested on: AMP-activated protein kinase (AMPK); experiment: AMPK phosphorylation (Western blot) in cultured adult sensory neurons; assay type: cell-based, rat; conditions: neurons from age-matched control rats
# Protocol: Subsets of cultured adult sensory neurons derived from age-matched control rats or 3-5 month STZ-induced diabetic rats were treated with a 1.0 μM pirenzepine-HCl dosage. The first subset was processed immediately while the second, third and fourth subsets of the neurons from the control rats and the diabetic rats were processed after 15 min, after 30 min, and after 60 min respectively following treatment with pirenzepine. The cell cultures were lysed and then used to prepare Western blots which were then probed with antibodies against phosphorylated AMPK (P-AMPK), total AMPK (T-AMPK) and total ERK (T-ERK). […] Values are means±SEM, N=3/group. Statistical significance was analyzed using one-way ANOVA with Tukey's post-hoc test.
# [2] = tested on: cultured adult rat sensory neurons; experiment: Total neurite outgrowth in cultured adult sensory neurons; assay type: cell-based; conditions: for total neurite outgrowth: cultured adult sensory neurons from normal adult rodents
# From the text: The fundamental hypothesis is that blocking endogenous cholinergic constraint using a muscarinic receptor antagonist will promote re-growth of neurons in patients with established peripheral neuropathy. This occurs via activation of AMPK and PGC-1α and the subsequent augmentation of mitochondrial function. This pathway comprises a proximal step involving M1 receptor antagonist-dependent activation of CaMKKβ (or CaMKK2). This hypothesis is supported by extensive preclinical data using in vitro and in vivo model systems. […] A specific requirement for M1 receptor antagonism is confirmed by the increased neurite outgrowth from sensory neurons derived from M1R KO mice.
# The highly specific M1 receptor antagonist, MT7 (muscarinic toxin 7), enhanced neurite outgrowth in cultured adult rat sensory neurons (FIGS. 9(A), 9(B), 10). The data in FIG. 10 are means±SEM of 9 replicate cultures. Significant differences were determined by one-way ANOVA with Dunnett's post-hoc test.
# PGC-1α = PGC-1α transcriptional activity, luciferase reporter in adult sensory neurons; assay type: cell-based, rat
# Protocol: PGC-1α transcriptional activity was determined in dissociated adult sensory neurons derived from STZ-induced diabetic rats by transfection for two days with luciferase-based reporter plasmids by following the methods taught in the AMAXA® NUCLEOFECTOR® II Manual (www.amaxa.com; AMAX and NUCLEOFECTOR are registered trademarks of Amaxa GmBH Corp., Koln, Fed. Rep. Germany) and by Saleh et al. (2013, Ciliary neurotrophic factor activates NF-κB to enhance mitochondrial bioenergetics and prevent neuropathy in sensory neurons of streptozotocin-induced diabetic rodents. Neuropharmacology 65:65-75) (the luciferase-based reporter plasmids were a gift from Dr. Michael Czubryt, University of Manitoba).
# [3] = tested on: adult sensory neurons from normal rats; experiment: Neurite outgrowth of sensory neurons exposed to paclitaxel or oxaliplatin; assay type: cell-based, rat; conditions: 24 hours; paclitaxel 0.1 or 0.3 μM, oxaliplatin 3.0 μM
# Protocol: Adult sensory neurons from normal rats were cultured for 24 hours in the presence of(A) paclitaxel (PX; 0.1 μM or 0.3 μM), or (B) oxaliplatin (OX; 3.0 μM). From time of plating some cultures were treated with 0.1, 1.0 or 10 μM pirenzepine (PZ). Levels of total neurite outgrowth were determined and presented as means±SEM, N=6-8/group. Significant differences were assessed in(A) by t-test, and in(B) by one-way ANOVA with Dunnett's post-hoc test.
# db/db mice = experiment: Topical oxybutynin in db/db mouse model of type 2 diabetes; assay type: in vivo
# Protocol: The muscarinic receptor antagonist oxybutynin was tested for efficacy against a functional measure of sensory neuropathy in the db/db mouse model of type 2 diabetes (FIG. 15). Thermal latency was analyzed as taught by Calcutt et al. (2004, Prevention of sensory disorders in diabetic Sprague-Dawley rats by aldose reductase inhibition or treatment with ciliary neurotrophic factor. Diabetologia 47:718-24). […] Some diabetic mice were then treated with oxybutynin (Oxy: 2% in hydrogel) applied to the right paw for 20 min/day 5 days a week, while others were treated with hydrogel vehicle alone. […] Data are group mean±SEM of N=8-9/group.
# IENF levels were quantified as taught by Beiswenger et al. (2008, Epidermal nerve fiber quantification in the assessment of diabetic neuropathy. Acta Histochem. 110:351-63). The data shown in FIG. 16(A) are group mean±SEM of N=6-8/group. Significant differences were determined with a oneway ANOVA followed by Dunnett's post-hoc test. […] After 8 weeks of topical oxybutynin treatment, the eyes were assessed using corneal confocal microscopy as taught by Chen et al. (2013, Repeated monitoring of corneal nerves by confocal microscopy as an index of peripheral neuropathy in type-1 diabetic rodents and the effects of topical insulin. J. Periph. Nerv. Syst. 18;306-315).
# [4] = tested on: STZ-induced diabetic Swiss Webster mice; experiment: Systemic oxybutynin in STZ-induced diabetic Swiss Webster mice, thermal hypoalgesia; assay type: in vivo, mouse; conditions: 9 weeks after 8 weeks of untreated diabetes
# [5] = tested on: STZ-induced diabetic Swiss Webster mice; experiment: Topical atropine (eye or paw) in STZ-induced diabetic Swiss Webster mice; assay type: in vivo, mouse; conditions: 5 days/wk, 12 weeks
# Protocol: Groups of adult Swiss Webster mice were made diabetic with STZ and then treated 5 days/wk with atropine delivered topically to one eye (2% solution) or topically to one paw (2% gel) for 12 weeks. Measurements were made on both the treated and untreated hind paw. Indices of large motor fiber function (MNCV; FIG. 21) and sensory sensory fiber function (paw thermal latency; FIG. 22) were measured and compared to those of age-matched control mice that were treated in an equivalent manner. […] The data shown in FIGS. 21 and 22 are group means±SEM with N=6-10/group. Significant differences were determined by unpaired t-test to compare control and diabetic animals under each condition (vehicle, atropine to the eye, atropine to the foot).
# adult Swiss Webster mice = experiment: Corneal nerve occupancy by confocal microscopy in normal mice given MT7 eye drops; assay type: in vivo, mouse; conditions: daily eye drops; day 11 vs day 2, p<0.05
# Protocol: To further extend our investigation of the actions of muscarinic receptor antagonists on nerve growth, we treated normal mice with the M1 receptor-specific antagonist MT7 by daily delivery to the eyes for 11 days and used confocal microscopy to provide a non-invasive and therefore iterative assessment of corneal nerve density.
# A group (n=8) of adult Swiss Webster mice received daily treatment with MT7, which was given by eye drops (20 μl volume) in saline. Nerve occupancies in the sub-basal nerve plexus (SBNP 1-5) and upper stromal (Stroma 1-10) regions of the cornea were measured on day 2 and day 11 of treatment (FIG. 23). […] Data are group means (N=8)±SEM.
# M1 receptor = target: T1, M1 receptor (Homo sapiens, UniProt P11229); conditions: cited from earlier work
# T1 sequence (P11229 1-460): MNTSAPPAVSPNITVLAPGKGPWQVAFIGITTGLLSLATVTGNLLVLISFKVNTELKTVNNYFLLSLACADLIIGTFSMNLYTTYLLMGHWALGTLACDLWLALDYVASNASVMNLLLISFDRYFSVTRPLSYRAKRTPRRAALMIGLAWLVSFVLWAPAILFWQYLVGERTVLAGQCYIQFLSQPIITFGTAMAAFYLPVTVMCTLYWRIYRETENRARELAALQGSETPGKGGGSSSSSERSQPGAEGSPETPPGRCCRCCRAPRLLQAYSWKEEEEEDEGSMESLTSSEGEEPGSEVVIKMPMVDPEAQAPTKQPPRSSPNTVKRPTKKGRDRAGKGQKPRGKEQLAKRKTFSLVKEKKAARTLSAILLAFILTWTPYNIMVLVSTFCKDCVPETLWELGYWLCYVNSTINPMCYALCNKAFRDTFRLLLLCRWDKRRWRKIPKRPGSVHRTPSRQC
# [6] = tested on: cultured adult rat sensory neurons; assay type: cell-based; conditions: gp120 24 hours; not shown
# Protocol: To further extend our investigation of the actions of muscarinic receptor antagonists on nerve growth, cultured adult rat sensory neurons were treated for 24 hours with recombinant gp120, an external coat protein of HIV that causes toxicity to sensory neurons in HIV neuropathy (FIG. 24). This toxicity leads to axon degeneration and neuronal cell death. Cultures were treated with 1 μM pirenzpeine and total neurite outgrowth determined. […] Values are means±SEM. n=6.
# [7] = topical, 8 weeks, values not significantly different from controls
# [8] = 2% solution topically to one eye
molecule,measurement,setting,value
O=C(O)c1ccc2c3c1cccc3c(=O)n1c3ccccc3nc21 [STO-609],effect on MT7-induced enhancement of AMPK phosphorylation,[1]; 1.0μM,inhibited
same,effect on pirenzepine-induced enhancement of AMPK phosphorylation,[1]; 1.0μM,inhibited
same,effect on pirenzepine-induced neurite outgrowth,[2]; cultured adult rat sensory neurons,dose-dependently inhibited
c1cc(-c2cnn3cc(-c4ccc(OCCN5CCCCC5)cc4)cnc23)ccn1 [Compound C],effect on MT7 stimulation of PGC-1α transcription,PGC-1α; 0.3μM co-treatment with MT7,blocked
O=C1[O][Pt]2([NH][C@@H]3CCCC[C@H]3[NH]2)[O]C1=O [oxaliplatin],neurite outgrowth of sensory neurons exposed in vitro to the chemotherapeutic,[3],reduced neurite outgrowth
"CCN(CC)CC#CCOC(=O)C(O)(c1ccccc1)C1CCCCC1 (stereo not drawn) [oxybutynin, 4-dicthylaminobut-2-ynyl-2-cyclohexyl-2-hydroxy-2-phenyl-ethanoate]",total neurite outgrowth,[2],elevated
same,paw thermal hypoalgesia (thermal latency),"db/db mice; 2% in hydrogel to right paw 20 min/day, 5 days a week, 8 weeks, p<0.01 vs vehicle",reversed
same,time of treatment to reversal of thermal hypoalgesia,db/db mice; topical oxybutynin,4-8 weeks
same,reduction in density of IENF in paw skin,db/db mice; [7],attenuated
same,reduction in nerve fiber occupancy in the cornea,db/db mice; [7],attenuated
same,thermal hypoalgesia,[4]; 3 mg/kg s.c.,able to reverse
same,thermal hypoalgesia,[4]; 10 mg/kg s.c.,able to reverse
CN1[C@@H]2CC[C@H]1C[C@@H](OC(=O)C(CO)c1ccccc1)C2 (stereo partly drawn) [atropine],large fiber MNCV,[5]; 2% gel topically to one paw,not different to controls
same,paw thermal hypoalgesia (paw thermal latency),[5]; 2% gel topically to one paw,not different to controls
same,large fiber MNCV,[5]; [8],not different to controls
same,paw thermal hypoalgesia (paw thermal latency),[5]; [8],not different to controls
"MT7: 64-66 amino acid protein derived from the African green mamba snake; most specific antagonist of the M1 receptor (protein, UniProt Q8QGR0 22-86, looked up) Muscarinic toxin 7: LTCVKSNSIWFPTSEDCPDGQNLCFKRWQYISPRMYDFTRGCAATCPKAEYRDVINCCGTDKCNK",nerve occupancy in the sub-basal nerve plexus (SBNP 1-5) of the cornea,adult Swiss Webster mice,increased significantly
same,nerve occupancy in the upper stromal (Stroma 1-10) region of the cornea,adult Swiss Webster mice,increased significantly
same,AMPK phosphorylation,[1]; MT7,enhancement
same,total neurite outgrowth,[2],enhanced; also recorded: dose-dependently elevated
same,concentrations at which it binds to an allosteric site on the M1 receptor,M1 receptor; allosteric site,low nanomolar
same,selectivity for M1 receptors over M2-M5,M1 receptor,"10,000 fold"
same,transcription of PGC-1α,"PGC-1α; MT7 treatment, neurons from STZ-induced diabetic rats",activated
same,level of protection from gp120 treatment,[6],approximately 50%
